Our source for the IC50 values is patent US10954232B2, “Pyrazole derivative as ALK5 inhibitor and uses thereof” (HANMI PHARMACEUTICAL CO., LTD., priority 2016, dated 2021).

This assay has as its target T1, ALK5 kinase (Homo sapiens, UniProt P36897).
T1 construct: GST; purchased Thermo Fisher Scientific Solutions
T1 sequence (P36897 34-503): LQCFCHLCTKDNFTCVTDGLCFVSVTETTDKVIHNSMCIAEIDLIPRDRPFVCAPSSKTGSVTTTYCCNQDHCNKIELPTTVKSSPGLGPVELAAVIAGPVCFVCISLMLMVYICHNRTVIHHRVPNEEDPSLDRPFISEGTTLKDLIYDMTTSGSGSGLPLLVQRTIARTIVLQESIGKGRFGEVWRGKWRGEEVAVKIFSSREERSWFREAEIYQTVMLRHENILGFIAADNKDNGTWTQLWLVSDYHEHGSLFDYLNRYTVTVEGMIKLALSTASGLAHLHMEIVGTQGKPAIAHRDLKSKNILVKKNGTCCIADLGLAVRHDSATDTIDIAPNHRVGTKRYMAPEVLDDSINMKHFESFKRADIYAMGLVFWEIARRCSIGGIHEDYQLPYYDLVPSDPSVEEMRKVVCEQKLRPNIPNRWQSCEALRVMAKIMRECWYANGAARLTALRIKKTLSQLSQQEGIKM
In words: Activity inhibition test on ALK5 enzyme (LanthaScreen Eu binding kinase assay). The note with it: kinase tracer 178, 60 minutes at room temperature. A digest of the protocol:
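IC50 is the concentration giving 50% inhibition relative to control, taken from fluorescence after 60 min stirring at room temperature. Final mix held kinase 5 nM, Eu-GST binding antibody 2 nM and tracer 178 10 nM. Compounds were serially diluted from 1 μM to 0.0001 μM.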
(TR-FRET usually uses a lanthanide donor and a delayed reading to cut background.)
By IC50 is commonly meant the point on the concentration scale where inhibition reaches its midpoint. A higher IC50 goes with weaker potency in that assay. Turning to `Cc1cccc(-n2nc(C(=O)Nc3cccc(C(F)(F)F)c3)cc2-c2ccc3ncnn3c2)n1` [Example 118, 5-([1,2,4]triazolo[1,5-α]pyridin-6-yl)-1-(6-methylpyridin-2-yl)-N-(3-(trifluoromethyl)phenyl)-1H-pyrazole-3-carboxyamide], the IC50 was in the range of 10 to 100 nM. The compound `COc1ccc(NC(=O)c2cc(-c3ccc4ncsc4c3)n(-c3cccc(C)n3)n2)cc1F` [Example 10, 5-(benzo[d]thiazol-6-yl)-N-(3-fluoro-4-methoxyphenyl)-1-(6-methylpyridin-2-yl)-1H-pyrazole-3-carboxyamide] registered an IC50 of 10 nM. `COc1ccc(CNC(=O)c2cc(-c3ccc4nccnc4c3)n(-c3cccc(C)n3)n2)cc1` [Example 193, N-(4-methoxybenzyl)-1-(6-methylpyridin-2-yl)-5-(quinoxalin-6-yl)-1H-pyrazole-3-carboxyamide] registered an IC50 of roughly 100 nM. On to `Cc1cccc(-n2nc(C(=O)Nc3ccc(S(C)(=O)=O)cc3)cc2-c2ccc3ncnn3c2)n1` [Example 147, 5-([1,2,4]triazolo[1,5-α]pyridin-6-yl)-N-(4-(methylsulfonyl)phenyl)-1-(6-methylpyridin-2-yl)-1H-pyrazole-3-carboxyamide], for which the IC50 is 3.7 nM. In turn, `COc1ccc(NC(=O)c2cc(-c3ccc4ncsc4c3)n(-c3cccc(C)n3)n2)cc1` [Example 1, 5-(benzo[d]thiazol-6-yl)-N-(4-methoxyphenyl)-1-(6-methylpyridin-2-yl)-1H-pyrazole-3-carboxyamide] returned a 50% inhibitory concentration (IC50) of 5 nM.

In turn, `Cc1cccc(-n2nc(C(=O)Nc3ccc4c(c3)OCO4)cc2-c2ccnc3ccccc23)n1` [Example 214, N-(benzo[d][1,3]dioxol-5-yl)-1-(6-methylpyridin-2-yl)-5-(quinolin-4-yl)-1H-pyrazole-3-carboxyamide] displayed an IC50 of 30 nM.

On to `COc1ccc(NC(=O)c2cc(-c3ccc4ncnn4c3)n(-c3cccc(C)n3)n2)c(F)c1` [Example 97, 5-([1,2,4]triazolo[1,5-α]pyridin-6-yl)-N-(2-fluoro-4-methoxyphenyl)-1-(6-methylpyridin-2-yl)-1H-pyrazole-3-carboxyamide], for which the IC50 is 10 to 100 nM. As for `CNC(=O)c1ccc(NC(=O)c2cc(-c3ccc4ncnn4c3)n(-c3cccc(C)n3)n2)cc1` [Example 113, 5-([1,2,4]triazolo[1,5-α]pyridin-6-yl)-N-(4-(methylcarbamoyl)phenyl)-1-(6-methylpyridin-2-yl)-1H-pyrazole-3-carboxyamide], the IC50 was 10 to 100 nM. For `Cc1cccc(-n2nc(C(=O)NCc3ccccc3Cl)cc2-c2ccc3nccnc3c2)n1` [Example 201, N-(2-chlorobenzyl)-1-(6-methylpyridin-2-yl)-5-(quinoxalin-6-yl)-1H-pyrazole-3-carboxyamide], the IC50 was 10 to 100 nM. In turn, `Cc1cccc(-n2nc(C(=O)Nc3ccc(N4CCN(C)CC4)cc3)cc2-c2ccc3ncnn3c2)n1` [Example 107, 5-([1,2,4]triazolo[1,5-α]pyridin-6-yl)-N-(4-(4-methylpiperazin-1-yl)phenyl)-1-(6-methylpyridin-2-yl)-1H-pyrazole-3-carboxyamide] had an IC50 of 10 to 100 nM. The figure for `Cc1cccc(-n2nc(C(=O)Nc3ccc(C#N)cc3)cc2-c2ccc3nccnc3c2)n1` [Example 174, N-(4-cyanophenyl)-1-(6-methylpyridin-2-yl)-5-(quinoxalin-6-yl)-1H-pyrazole-3-carboxyamide] is less than 100 nM; for `Cc1cccc(-n2nc(C(=O)Nc3ccc(Br)cc3)cc2-c2ccc3ncnn3c2)n1` [Example 132, 5-([1,2,4]triazolo[1,5-α]pyridin-6-yl)-N-(4-bromophenyl)-1-(6-methylpyridin-2-yl)-1H-pyrazole-3-carboxyamide] it is roughly 10 nM. In turn, `Cc1cccc(-n2nc(C(=O)Nc3ccc(N(C)C)cc3)cc2-c2ccc3ncsc3c2)n1` [Example 13, 5-(benzo[d]thiazol-6-yl)-N-(4-(dimethylamino)phenyl)-1-(6-methylpyridin-2-yl)-1H-pyrazole-3-carboxyamide] had an IC50 of 10 to 100 nM.

Compound `Cc1cccc(-n2nc(C(=O)Nc3ccc(S(N)(=O)=O)cc3)cc2-c2ccc3ncnn3c2)n1` [Example 148, 5-([1,2,4]triazolo[1,5-α]pyridin-6-yl)-N-(4-sulfamoylphenyl)-1-(6-methylpyridin-2-yl)-1H-pyrazole-3-carboxyamide] showed an IC50 of 8.3 nM. The figure for `Cc1cccc(-n2nc(C(=O)Nc3ccc(F)c(F)c3)cc2-c2ccc3ncsc3c2)n1` [Example 30, 5-(benzo[d]thiazol-6-yl)-N-(3,4-difluorophenyl)-1-(6-methylpyridin-2-yl)-1H-pyrazole-3-carboxyamide] is 5.8 nM.

For the compound `Cc1cccc(-n2nc(C(=O)Nc3ccccc3Cl)cc2-c2ccc3nccnc3c2)n1` [Example 190, N-(2-chlorophenyl)-1-(6-methylpyridin-2-yl)-5-(quinoxalin-6-yl)-1H-pyrazole-3-carboxyamide], the IC50 was in the range of 100 to 1000 nM. The compound `Cc1cccc(-n2nc(C(=O)Nc3ccc(Cl)cc3)cc2-c2ccc3ncnn3c2)n1` [Example 129, 5-([1,2,4]triazolo[1,5-α]pyridin-6-yl)-N-(4-chlorophenyl)-1-(6-methylpyridin-2-yl)-1H-pyrazole-3-carboxyamide] yielded an IC50 of 10 to 100 nM.

For `CCOC(=O)c1cccc(NC(=O)c2cc(-c3ccc4ncsc4c3)n(-c3cccc(C)n3)n2)c1` [Example 24, ethyl 3-(5-(benzo[d]thiazol-6-yl)-1-(6-methylpyridin-2-yl)-1H-pyrazole-3-carboxyamido)benzoate], the IC50 is roughly 100 nM.

Compound `Cc1ccc(NC(=O)c2cc(-c3ccc4ncnn4c3)n(-c3cccc(C)n3)n2)cc1` [Example 117, 5-([1,2,4]triazolo[1,5-α]pyridin-6-yl)-1-(6-methylpyridin-2-yl)-N-(p-tolyl)-1H-pyrazole-3-carboxyamide] came in with an IC50 of 10 to 100 nM. For the compound `Cc1cccc(-n2nc(C(=O)Nc3ccc(OC(C)C)cc3)cc2-c2ccc3ncnn3c2)n1` [Example 94], the IC50 is roughly 10 nM. For `Cc1cccc(-n2nc(C(=O)Nc3ccc(OCc4ccccc4)cc3)cc2-c2ccc3ncsc3c2)n1` [Example 6, 5-(benzo[d]thiazol-6-yl)-N-(4-(benzyloxy)phenyl)-1-(6-methylpyridin-2-yl)-1H-pyrazole-3-carboxyamide], the IC50 was 11 nM. This counts as double-digit nanomolar. As to `Cc1cccc(-n2nc(C(=O)Nc3cnn(C)c3)cc2-c2ccc(F)c(-c3cnn(CCO)c3)c2)n1` [Example 223, N-(1-methyl-1H-pyrazol-4-yl)-5-(4-fluoro-3-(1-(2-hydroxyethyl)-1H-pyrazol-4-yl)phenyl)-1-(6-methylpyridin-2-yl)-1H-pyrazole-3-carboxyamide], the IC50 stood at 2.8 nM. The figure for `Cc1cccc(-n2nc(C(=O)Nc3ccc4c(c3)OCO4)cc2-c2ccc3ncnn3c2)n1` [Example 96, 5-([1,2,4]triazolo[1,5-α]pyridin-6-yl)-N-(benzo[d][1,3]dioxol-5-yl)-1-(6-methylpyridin-2-yl)-1H-pyrazole-3-carboxyamide] is 3.5 nM; for `Cc1cccc(-n2nc(C(=O)Nc3ccc(S(C)(=O)=O)cc3)cc2-c2ccc(F)c(-c3cnn(CCO)c3)c2)n1` [Example 226, N-(4-(methylsulfonyl)phenyl)-5-(4-fluoro-3-(1-(2-hydroxyethyl)-1H-pyrazol-4-yl)phenyl)-1-(6-methylpyridin-2-yl)-1H-pyrazole-3-carboxyamide] it is 4.7 nM. As to `Cc1cccc(-n2nc(C(=O)Nc3ccnc(F)c3)cc2-c2ccc3ncsc3c2)n1` [Example 72, 5-(benzo[d]thiazol-6-yl)-N-(2-fluoropyridin-4-yl)-1-(6-methylpyridin-2-yl)-1H-pyrazole-3-carboxyamide], the IC50 amounted to 11 nM. As to `Cc1cccc(-n2nc(C(=O)Nc3ccccc3C)cc2-c2ccc3ncnn3c2)n1` [Example 115, 5-([1,2,4]triazolo[1,5-α]pyridin-6-yl)-1-(6-methylpyridin-2-yl)-N-(o-tolyl)-1H-pyrazole-3-carboxyamide], the IC50 fell in the range of 10 to 100 nM. For `Cc1cccc(-n2nc(C(=O)Nc3ccccc3F)cc2-c2ccc3nccnc3c2)c1` [Example 202, N-(2-fluorophenyl)-5-(quinoxalin-6-yl)-1-(m-tolyl)-1H-pyrazole-3-carboxyamide], the IC50 was greater than 1000 nM. Compound `COc1cccc(CNC(=O)c2cc(-c3ccc4ncnn4c3)n(-c3cccc(C)n3)n2)c1` [Example 158, 5-([1,2,4]triazolo[1,5-α]pyridin-6-yl)-N-(3-methoxybenzyl)-1-(6-methylpyridin-2-yl)-1H-pyrazole-3-carboxyamide] yielded an IC50 of 10 to 100 nM.

`Cc1cccc(-n2nc(C(=O)Nc3ccccc3Cl)cc2-c2ccc3ncnn3c2)n1` [Example 127, 5-([1,2,4]triazolo[1,5-α]pyridin-6-yl)-N-(2-chlorophenyl)-1-(6-methylpyridin-2-yl)-1H-pyrazole-3-carboxyamide] yielded an IC50 of roughly 100 nM. Take `Cc1cccc(-n2nc(C(=O)Nc3ccc(F)cc3)cc2-c2ccc3nccnc3c2)n1` [Example 183, N-(4-fluorophenyl)-1-(6-methylpyridin-2-yl)-5-(quinoxalin-6-yl)-1H-pyrazole-3-carboxyamide]: the IC50 lay within 10 to 100 nM. For `Cc1cccc(-n2nc(C(=O)NCc3ccc(C#N)cc3)cc2-c2ccc3nccnc3c2)n1` [Example 194, N-(4-cyanobenzyl)-1-(6-methylpyridin-2-yl)-5-(quinoxalin-6-yl)-1H-pyrazole-3-carboxyamide], the IC50 was greater than 100 nM.
